Experimental data as given in patent US20250163057A1, “DCN-1 MODULATING COMPOUNDS AND METHODS OF USE THEREOF” (Cellarity, Inc., priority 2023, published 2025).
Like-named read-outs stand apart in the source and are kept apart here.

Columns and labels:
[1] = tested on: Cullin-3 (CUL3) neddylation; assay: AlphaLISA assay for Cullin-3 (CUL3) neddylation in TF 1 cells; type: cell-based; conditions: 3 hours treatment
Experimental: An AiphaLISA assay was performed to evaluate the ability of the compounds to suppress neddylation, which is downstream from DCN-1 and DCN-2. A stronger inhibition of DCN-1 and DCN-2 is expected to result in a suppression of neddylation as shown by a lower AlphaLISA signal. The AlphaLISA assay for detecting Cullin-3 (CUL3) neddylation was performed according to manufacturer instructions (Revvity, Hopkinton, MA). Briefly, TF 1 cells (ATCC) were plated in Iscove's Modified Dulbecco's Medium (IMIDM) without supplements in 384-well plates. These cells were treated with […] for 3 hours before lysing them with AlphaLISA lysis buffer, 5× (Revvity). To detect the level of CUL3 neddylation, biotinylated anti-NEDD8 antibody, was added followed by AlphaLISA Acceptor beads conjugated with anti-CUL3 antibody. After overnight incubation, Streptavidin-coated Alpha Donor beads were added and incubated for 1 hour. The AlphaLISA signal was then read on a VICTOR Nivo Multimode Microplate Reader (Revvity, Hopkinton, MA). The positive control was 1 μM DI-1548, which is reported to reduce CUL3 neddylation, also referred to as C-1 in Example 41 (Zhou et al. Nature Comm. 2021). The neddylation signal was normalized such that the percent inhibition is 0% for vehicle control and 100% for positive control. The dose-response curves were fitted with the Hill equation to obtain IC50 values (Graphpad Prism).

[2] = biological target: DCN1 (DCUND1) protein PONY domain (Homo sapiens (Human), UniProt Q96GG9); assay: TR-FRET assay, DCN1 binding with FAM-labeled probe
DCN1 (DCUND1) protein PONY domain, sequence (Q96GG9 60-248): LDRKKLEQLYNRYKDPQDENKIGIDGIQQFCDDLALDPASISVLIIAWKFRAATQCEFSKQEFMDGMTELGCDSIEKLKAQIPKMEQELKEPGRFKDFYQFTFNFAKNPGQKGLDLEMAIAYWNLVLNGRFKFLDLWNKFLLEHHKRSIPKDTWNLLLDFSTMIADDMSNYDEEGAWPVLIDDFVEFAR
Summary of the method: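 Binding was read as the TR-FRET ratio between a FAM-tagged inhibitor probe and Tb-labeled biotinylated E. coli-expressed DCN1 PONY domain, measured 1, 5 and 24 h after compound addition. The two setups used 5 nM protein/20 nM FAM-probe or 0.31 nM protein/900 nM total probe (100 nM labeled), in TritonX buffer with 200 mM NaCl.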

[3] = 24 hr after treatment with compound, read-out: TR FRET IC50 24 hr
[4] = TR FRET IC50 1 hr (nM), 1 hr after treatment with compound

Row | SMILES | IC50 ([1]; Homo sapiens, TF-1, 3 h) | IC50 [2, 3] | IC50 [2, 4] | IC50 [1] | IC50 ([2]; read-out: TR FRET IC50 1 hr, 1 hr after treatment with compound)
1 | CCN1C(=O)[C@@H](NC(=O)c2cccc(C(F)(F)F)c2)[C@@H](c2ccc(F)cc2)c2c(CN(C#N)CCO)nn(-c3ccccc3)c21 (racemic) [Compound I-244, ˜{N}—[˜{rac}-(4˜{S},5˜{S})-3-[[cyano(2-hydroxyethyl)amino]methyl]-7-ethyl-4-(4-fluorophenyl)-6-oxo-1-phenyl-4,5-dihydropyrazolo[3,4-b]pyridine-5-yl]-3-(trifluoromethyl)benzamide] | 100 to 1000 nM | 200 to 1000 nM | 1000 to 3000 nM |  | 
2 | CCN1C(=O)[C@@H](NC(=O)c2cccc(C(F)(F)F)c2)[C@@H](c2ccc(F)cc2)c2c(C(=O)N(C)CC#N)nn(-c3ccccc3)c21 (racemic) [Compound I-398] |  | 1000 to 3000 nM | 1000 to 3000 nM | > 1000 nM | 
3 | CCN1C(=O)[C@@H](NC(=O)c2cccc(C(F)(F)F)c2)[C@@H](c2ccc(F)cc2)c2c(C(=O)N(CC#N)CCN(C)C)nn(-c3ccccc3)c21 (racemic) [Compound I-448] | > 1000 nM | ≤ 200 nM |  |  | ≤ 200 nM
4 | CCN1C(=O)[C@@H](NC(=O)c2cccc(C(F)(F)F)c2)[C@@H](c2ccc(F)cc2)c2c(CN(C#N)CCN(C)C)nn(-c3ccccc3)c21 (racemic) [Compound I-486] | ≤ 100 nM | ≤ 200 nM | 200 to 1000 nM |  | 
5 | CCN1C(=O)[C@@H](NC(=O)c2cccc(C(F)(F)F)c2)[C@@H](c2ccc(F)cc2)c2c(NC(=O)C3=CCCN(C)C3)nn(-c3ccccc3)c21 (racemic) [Compound I-488] | ≤ 100 nM | ≤ 200 nM | 200 to 1000 nM |  | 
6 | CCN1C(=O)[C@H](NC(=O)c2cccc(C(F)(F)F)c2)[C@H](c2ccc(F)cc2)c2c(C(=O)N(CC#N)C3COC3)nn(-c3ccccc3)c21 (racemic) [Compound I-603] | 100 to 1000 nM | ≤ 200 nM | 1000 to 3000 nM |  | 
7 | CCN1C(=O)[C@@H](NC(=O)c2cccc(C(F)(F)F)c2)[C@@H](c2ccc(F)cc2)c2c(C(C)=O)nn(-c3ccccc3)c21 (racemic) [Compound I-649] | > 1000 nM | 1000 to 3000 nM | 1000 to 3000 nM |  | 
8 | CCN1C(=O)[C@@H](NC(=O)c2cccc(C(F)(F)F)c2)[C@@H](c2ccc(F)cc2)c2c(C(=O)N(C)C3(C#N)CCC3)nn(-c3ccccc3)c21 (racemic) [Compound I-689] | 100 to 1000 nM | ≤ 200 nM | 1000 to 3000 nM |  | 
9 | CCN1C(=O)[C@@H](NC(=O)c2cccc(C(F)(F)F)c2)[C@@H](C2CC2)c2c(C(=O)N3CC[C@@H](NC)[C@@H]3C#N)nn(C3CCOCC3)c21 (relative stereo) [Compound I-421, N-((4S,5S)-3-((2R*,3R*)-2-cyano-3-(methylamino)pyrrolidine-1-carbonyl)-4-cyclopropyl-7-ethyl-6-oxo-1-(tetrahydro-2H-pyran-4-yl)-4,5,6,7-tetrahydro-1H-pyrazolo[3,4-b]pyridin-5-yl)-3-(trifluoromethyl)benzamide] | 100 to 1000 nM | ≤ 200 nM | 1000 to 3000 nM |  | 
10 | CN1C(=O)[C@H](NC(=O)c2cccc(C(F)(F)F)c2)[C@H](C2CC2)c2c(C(=O)N3[C@H](C#N)C[C@H]4C[C@H]43)nn(C3CCOCC3)c21 (relative stereo) [Compound I-528, N-((4R*,5R*)-3-((1 R,3S,5R)-3-cyano-2-azabicyclo[3.1.0]hexane-2-carbonyl)-4-cyclopropyl-7-methyl-6-oxo-1-(tetrahydro-2H-pyran-4-yl)-4,5,6,7-tetrahydro-1H-pyrazolo [3,4-b]pyridin-5-yl)-3-(trifluoromethyl)benzamide] | > 1000 nM | 1000 to 3000 nM | 1000 to 3000 nM |  | 
11 | CCN1C(=O)[C@@H](NC(=O)c2cccc(C(F)(F)F)c2)[C@@H](c2ccc(F)cc2)c2c(C(=O)N3[C@H](C#N)C[C@H]4C[C@H]43)nn([C@H]3CCOC3)c21 (relative stereo) [Compound I-630, N-((4S*,5S*)-3-((1R,3S,5R)-3-cyano-2-azabicyclo[3.1.0]hexane-2-carbonyl)-7-ethyl-4-(4-fluorophenyl)-6-oxo-1-((S**)-tetrahydrofuran-3-yl)-4,5,6,7-tetrahydro-1H-pyrazolo[3,4-b]pyridin-5-yl)-3-(trifluoromethyl)benzamide] | ≤ 100 nM | ≤ 200 nM | ≤ 200 nM |  | 
